Data as given in ChEMBL document CHEMBL1671689, “Activity of ceftaroline against recent emerging serotypes of Streptococcus pneumoniae in the United States” (2010).
Converted amounts (≈) assume the structure as drawn.

Key:
Assay type in all cases: functional
Streptococcus pneumoniae [1] = assay: Antimicrobial activity against Streptococcus pneumoniae serotype 11A by broth microdilution method
Streptococcus pneumoniae [2] = assay: Antimicrobial activity against Streptococcus pneumoniae serotype 19A by broth microdilution method
Streptococcus pneumoniae [3] = assay: Antimicrobial activity against multiple drug resistant Streptococcus pneumoniae serotype 19A by broth microdilution method
Streptococcus pneumoniae [4] = assay: Antimicrobial activity against Streptococcus pneumoniae serotype 15A assessed as percent susceptible isolates by broth microdilution method
Streptococcus pneumoniae [5] = assay: Antimicrobial activity against Streptococcus pneumoniae serotype 23B assessed as percent susceptible isolates by broth microdilution method
Streptococcus pneumoniae [6] = assay: Antimicrobial activity against Streptococcus pneumoniae serotype 3 assessed as percent susceptible isolates by broth microdilution method
Streptococcus pneumoniae [7] = assay: Antimicrobial activity against Streptococcus pneumoniae serotype 7F assessed as percent susceptible isolates by broth microdilution method
Streptococcus pneumoniae [8] = assay: Antimicrobial activity against Streptococcus pneumoniae serotype 11A assessed as percent susceptible isolates by broth microdilution method
Streptococcus pneumoniae [9] = assay: Antimicrobial activity against multiple drug resistant Streptococcus pneumoniae serotype 19A assessed as percent susceptible isolates by broth microdilution method
Streptococcus pneumoniae [10] = assay: Antimicrobial activity against multiple drug resistant Streptococcus pneumoniae serotype 6B by broth microdilution method
Streptococcus pneumoniae [11] = assay: Antimicrobial activity against multiple drug resistant Streptococcus pneumoniae serotype 6B assessed as percent susceptible isolates by broth microdilution method
Streptococcus pneumoniae [12] = assay: Antimicrobial activity against Streptococcus pneumoniae serotype 35B by broth microdilution method
Streptococcus pneumoniae [13] = assay: Antimicrobial activity against Streptococcus pneumoniae serotype 19A assessed as percent susceptible isolates by broth microdilution method
Streptococcus pneumoniae [14] = assay: Antimicrobial activity against Streptococcus pneumoniae serotype 7F by broth microdilution method
Streptococcus pneumoniae [15] = assay: Antimicrobial activity against Streptococcus pneumoniae serotype 35B assessed as percent susceptible isolates by broth microdilution method
Streptococcus pneumoniae [16] = assay: Antimicrobial activity against multiple drug resistant Streptococcus pneumoniae serotype 19F by broth microdilution method
Streptococcus pneumoniae [17] = assay: Antimicrobial activity against Streptococcus pneumoniae serotype 6C by broth microdilution method
Streptococcus pneumoniae [18] = assay: Antimicrobial activity against Streptococcus pneumoniae serotype 19F assessed as percent susceptible isolates by broth microdilution method
Streptococcus pneumoniae [19] = assay: Antimicrobial activity against Streptococcus pneumoniae serotype 22F assessed as percent susceptible isolates by broth microdilution method
Streptococcus pneumoniae [20] = assay: Antimicrobial activity against Streptococcus pneumoniae serotype 23A assessed as percent susceptible isolates by broth microdilution method
Streptococcus pneumoniae [21] = assay: Antimicrobial activity against Streptococcus pneumoniae serotype 6C assessed as percent susceptible isolates by broth microdilution method
Streptococcus pneumoniae [22] = assay: Antimicrobial activity against multiple drug resistant Streptococcus pneumoniae serotype 19F assessed as percent susceptible isolates by broth microdilution method
Streptococcus pneumoniae [23] = assay: Antimicrobial activity against Streptococcus pneumoniae serotype 3 by broth microdilution method

Structure (SMILES)	MIC50 (Streptococcus pneumoniae [1]) [µg/mL]	MIC90 (Streptococcus pneumoniae [1]) [µg/mL]	MIC50 (Streptococcus pneumoniae [2]) [µg/mL]	MIC90 (Streptococcus pneumoniae [2]) [µg/mL]	MIC50 (Streptococcus pneumoniae [3]) [µg/mL]	MIC90 (Streptococcus pneumoniae [3]) [µg/mL]	Activity (Streptococcus pneumoniae [4]) [%]	Activity (Streptococcus pneumoniae [5]) [%]	Activity (Streptococcus pneumoniae [6]) [%]	Activity (Streptococcus pneumoniae [7]) [%]	Activity (Streptococcus pneumoniae [8]) [%]	Activity (Streptococcus pneumoniae [9]) [%]	MIC50 (Streptococcus pneumoniae [10]) [µg/mL]	MIC90 (Streptococcus pneumoniae [10]) [µg/mL]	Activity (Streptococcus pneumoniae [11]) [%]	MIC50 (Streptococcus pneumoniae [12]) [µg/mL]	MIC90 (Streptococcus pneumoniae [12]) [µg/mL]	Activity (Streptococcus pneumoniae [13]) [%]	MIC (Streptococcus pneumoniae [14]) [µg/mL]	MIC50 (Streptococcus pneumoniae [14]) [µg/mL]	also measured
CC[C@H]1OC(=O)[C@H](C)[C@@H](O[C@H]2C[C@@](C)(OC)[C@@H](O)[C@H](C)O2)[C@H](C)[C@@H](O[C@@H]2O[C@H](C)C[C@H](N(C)C)[C@H]2O)[C@](C)(O)C[C@@H](C)C(=O)[C@H](C)[C@@H](O)[C@]1(C)O [ERYTHROMYCIN]	≤ 0.25	> 2	> 2	> 2	> 8	> 8	5.3	75.8	95.1	64.4	75.5	0	> 8	> 8	0	≤ 0.25	> 2	26.5	≤ 0.25	≤ 0.25	MIC (Streptococcus pneumoniae [3]): > 8 µg/mL; MIC (Streptococcus pneumoniae [10]): > 8 µg/mL; MIC90 (Streptococcus pneumoniae [14]): ≤ 0.25 µg/mL; Activity (Streptococcus pneumoniae [15]): 64.4%; MIC (Streptococcus pneumoniae [16]): > 8 µg/mL; MIC50 (Streptococcus pneumoniae [16]): > 8 µg/mL; MIC90 (Streptococcus pneumoniae [16]): > 8 µg/mL; MIC50 (Streptococcus pneumoniae [17]): > 2 µg/mL; MIC90 (Streptococcus pneumoniae [17]): > 2 µg/mL; Activity (Streptococcus pneumoniae [18]): 17.2%; Activity (Streptococcus pneumoniae [19]): 88.6%; Activity (Streptococcus pneumoniae [20]): 78.8%; Activity (Streptococcus pneumoniae [21]): 41.9%; Activity (Streptococcus pneumoniae [22]): 0%; MIC50 (Streptococcus pneumoniae [23]): ≤ 0.25 µg/mL; MIC90 (Streptococcus pneumoniae [23]): ≤ 0.25 µg/mL
C[C@@H](O)[C@H]1C(=O)N2C(C(=O)O)=C(SCCNC=N)C[C@H]12 [IMIPENEM ANHYDROUS]	≤ 0.12	≤ 0.12	0.5 (≈ 1.67 µM)	1 (≈ 3.34 µM)	1 (≈ 3.34 µM)	1 (≈ 3.34 µM)	100	100	100	15.3	95.9	0.8	1 (≈ 3.34 µM)	1 (≈ 3.34 µM)	0.8	0.25 (≈ 0.835 µM)	0.5 (≈ 1.67 µM)	40.2	≤ 0.12	≤ 0.12	MIC (Streptococcus pneumoniae [1]): ≤ 0.12 µg/mL; MIC90 (Streptococcus pneumoniae [14]): ≤ 0.12 µg/mL; Activity (Streptococcus pneumoniae [15]): 15.3%; MIC50 (Streptococcus pneumoniae [16]): 1 µg/mL (≈ 3.34 µM); MIC90 (Streptococcus pneumoniae [16]): 1 µg/mL (≈ 3.34 µM); MIC (Streptococcus pneumoniae [17]): ≤ 0.12 µg/mL; MIC50 (Streptococcus pneumoniae [17]): ≤ 0.12 µg/mL; MIC90 (Streptococcus pneumoniae [17]): ≤ 0.12 µg/mL; Activity (Streptococcus pneumoniae [18]): 20.7%; Activity (Streptococcus pneumoniae [19]): 100%; Activity (Streptococcus pneumoniae [20]): 100%; Activity (Streptococcus pneumoniae [21]): 90.7%; Activity (Streptococcus pneumoniae [22]): 0.8%; MIC (Streptococcus pneumoniae [23]): ≤ 0.12 µg/mL; MIC50 (Streptococcus pneumoniae [23]): ≤ 0.12 µg/mL; MIC90 (Streptococcus pneumoniae [23]): ≤ 0.12 µg/mL
